“Also recorded” adds a separate entry of the source.
Tests used:
[1] = system: 47S rRNA precursor in HEK293T cells; experiment: Fluorescence in situ hybridization (FISH) of 47S precursor rRNA; format: cell-based, human; details: HEK293T cells expressing F185A
Description: We next examined the mechanistic link between KDM4A-mediated promoter demethylation and rRNA upregulation (Figure 7A). To confirm that KDM4A specifically stimulates rRNA synthesis, we performed fluorescence in situ hybridization (FISH) using a fluoresceine-attached short DNA complementary to the 47S rRNA precursor. Overexpression of wild type KDM4A and its as variant indeed led to increased expression of the precursor rRNA compared to that of the control vector (Figure 7B,C).
(Sigma B2883-25MG) for 30 seconds, washed with PBS and finally adhered to a slide with gelvatol. The cells were imaged at University of Pittsburgh Center for Biological Imaging on an Olympus Fluoview 1000 II, grant number 1S10OD019973-01 using excitation and emission wavelengths corresponding to that of Rhodamine. Images were analyzed on ImageJ open-source software and NIS elements software.
17. Analysis of rRNA expression in HEK293T cells using fluorescence in-situ hybridization HEK293-T cells (ATCC CRL-1573) were grown in a 24 well plate (Corning) on poly-D-lysine (Gibco A3890401) treated glass coverslips (ThermoScientific 12-545-81P) overnight and transfected the next day with 500 ng KDM4A WT/F185A or Empty Vector (EV) equivalent using 1:2 ug of Thermo Turbofect (FERR0531). […] Images were analyzed on ImageJ open-source software and NIS elements software. […]

[2] = molecular target: T1, ALKBH5 (Homo sapiens, UniProt Q6P6C2); experiment: MALDI-based assay on m6A RNA substrate; format: biochemical; details: MALDI-TOF, m6A oligonucleotide
T1 construct: we recombinantly expressed the catalytic domains of 12 wild type dioxygenases; His; made in house; host or cells: E. coli BL21 (DE3)
T1 sequence (Q6P6C2 67-394 limits assumed): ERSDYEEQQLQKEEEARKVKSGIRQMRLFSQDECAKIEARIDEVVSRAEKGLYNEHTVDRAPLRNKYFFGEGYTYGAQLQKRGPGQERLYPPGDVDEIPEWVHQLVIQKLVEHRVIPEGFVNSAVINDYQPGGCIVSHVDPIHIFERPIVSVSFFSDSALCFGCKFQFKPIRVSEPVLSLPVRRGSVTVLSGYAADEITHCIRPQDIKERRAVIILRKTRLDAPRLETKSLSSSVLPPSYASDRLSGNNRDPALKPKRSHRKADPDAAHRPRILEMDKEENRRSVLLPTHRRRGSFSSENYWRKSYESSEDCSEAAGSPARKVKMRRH
Description: (§1) MALDI-based assay for FTO and ALKBH5: To determine the enzymatic activity of FTO and
(§2) ALKBH5 recombinant proteins in the presence of L-Leu NOG 6, a previously published methods
(§3) were utilized.15, 18 Briefly,10 µM of each protein was incubated in the presence of 10 µM RNA
(§4) 7.5, 150 mM KCl, 50 µM L-Leu NOG or equivalent volume of water in 10 µL aliquots. The
(§5) samples were placed on ice for 10 minutes followed by addition of 200 µM 2OG or equivalent
(§6) volume of water. After incubation at 37 °C for 30 minutes, samples were desalted with 3 µL of BT
(§7) spotted on a MALDI plate with 1uL sample and 1uL of 3-HPA matrix and monitored with Bruker
(§8) FlexControl in the reflectron negative mode and analyzed on Bruker FlexAnalysis software.

[3] = molecular target: T2, FTO (Homo sapiens, UniProt Q9C0B1); experiment: MALDI-based assay on m6A RNA substrate; format: biochemical; details: MALDI-TOF, m6A oligonucleotide
T2 construct: we recombinantly expressed the catalytic domains of 12 wild type dioxygenases; His (N); made in house; host or cells: E. coli BL21 (DE3)
T2 sequence (Q9C0B1 32-327 limits assumed): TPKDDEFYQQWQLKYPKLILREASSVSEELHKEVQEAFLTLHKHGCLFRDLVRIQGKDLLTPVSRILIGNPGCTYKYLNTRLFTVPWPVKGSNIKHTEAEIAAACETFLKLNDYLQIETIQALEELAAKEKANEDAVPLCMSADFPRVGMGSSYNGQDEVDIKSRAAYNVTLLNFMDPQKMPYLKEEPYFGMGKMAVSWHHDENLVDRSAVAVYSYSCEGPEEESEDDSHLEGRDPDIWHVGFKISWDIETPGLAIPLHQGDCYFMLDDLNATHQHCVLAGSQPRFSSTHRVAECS
Description: as §1, §2, §3, §4, §5, §6, §7, §8

[4] = molecular target: T3, KDM4A-F185A (Homo sapiens, UniProt O75164, F185A); experiment: Coupled fluorescence end-point assay for IC50; format: biochemical
T3 construct: human KDM4A-jmjC domain (catalytic domain of KDM4A); 6xHis (N); host or cells: E. coli BL21 (DE3)
T3 sequence (O75164 142-308 F185A limits assumed): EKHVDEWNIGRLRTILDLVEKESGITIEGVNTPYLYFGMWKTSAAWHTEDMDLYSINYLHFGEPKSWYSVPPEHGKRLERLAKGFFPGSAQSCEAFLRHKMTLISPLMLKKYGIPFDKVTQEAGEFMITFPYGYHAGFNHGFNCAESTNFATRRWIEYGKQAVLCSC
Description: To probe the efficacy of bulky NOGs against the mutant, the inhibitory constant at half-maximal (IC50) was determined by the coupled enzymatic assay using increasing amounts of the NOG analogue at fixed concentrations of cofactor and substrate.
NADH (ACROS, cat #124530050) was added to assay buffer (50 mM HEPES pH 8, 50 µM (NH4)2Fe(SO4)2, 1 mM L-ascorbic acid, 1 mM NAD+, 200 nM FDH, and 1 µM KDM4A) in varying concentrations (0-10 µM). The experiments were performed in 384-well white Corning plates. The fluorescence intensity was measured with excitation = 340 nm and emission = 490 nm on a TECAN Infinite M1000Pro. Triplicate values were taken for each concentration.
The set up and analysis for IC50 of L-Leu NOG against KDM4A F185A enzyme was similar to that described in the coupled fluorescence assay section, but adjusted to function as an end point assay. The assay composed of an enzyme cocktail (50mM HEPES pH 8.0, 75 µM (NH4)2Fe(SO4)2, 2 mM L-ascorbic acid, 1 mM NAD+, 200 nM FDH, 3 µM wild type KDM4A or KDM4A-F185A, and varying concentration of compounds (NOGs 6, 9 and 10) and a substrate cocktail (200 µM […]
2OG and 60 µM H3K9me3 peptide). […]
IC50 measurements were performed in triplicates. The data was plotted in GraphPad Prism to the equation Y=Bottom + (Top-Bottom)/(1+10^(X-LogIC50)), where Y = % Activity, and Bottom and Top being the lower and upper most plateaus of percent activity, respectively. […]

SMILES | transcription of the 47S precursor rRNA [1] | inhibition of ALKBH5 [2] | inhibition of FTO [3] | IC50 ([4]; dose-dependent inhibition of F185A, 200 µM 2OG, 60 µM H3K9me3 peptide) [nM] | IC50 ([4]; time-dependent inhibition of F185A, 1 hour) [nM] | IC50 ([4]; time-dependent inhibition of F185A, 2 hour) [nM] | IC50 ([4]; time-dependent inhibition of F185A, 3 hour) [nM] | IC50 ([4]; time-dependent inhibition of F185A, 4 hour) [nM] | IC50 ([4]; time-dependent inhibition of F185A, 5 hour (text: monitored over more than 5 h)) [nM]
CC(C)CC(NC(=O)C(=O)OCc1cccc(C(F)(F)F)c1)C(=O)O [6B, L-Leu TFMB-ester NOG] | significantly reduced; also recorded: decreased expression of pre-rRNA |  |  |  |  |  |  |  | 
CC(C)CC(NC(=O)C(=O)O)C(=O)O (stereo not drawn) [compound 6, N-oxalyl leucine] |  | No inhibition | No inhibition | 700 ± 100 | 700 ± 100 | 1200 ± 200 | 1500 ± 300 | 1800 ± 500 | 2200 ± 500

— paper PMC11783601, “Analogue-Sensitive Inhibition of Histone Demethylases Uncovers Member-Specific Function in Ribosomal Protein Synthesis” (Journal of the American Chemical Society, 2025)
